# According to patent US12492225B2, “Melanocyte-regulating peptides” (IDP DISCOVERY PHARMA, S.L., priority 2019, dated 2025):
# Test system: B16-F10 melanoma cells
# Assay: Measurement of melanin content in B16-F10 melanoma cells
# Format: cell-based, mouse
# Conditions: KA at 1 uM; FIG. 1
# Protocol: B16-F10 melanoma cells were seeded into 25 cm^2 cell culture flask and incubated for 24 h. Then, 0.1 μM α-MSH was added and cells were treated with the aforementioned peptides at doses lower than their respective IC50 for a total of 48 h incubation. After washing twice with phosphate buffered saline, cells were dissolved in 1 mL of 1N NaOH. For measurement of melanin content, 100 μL aliquots of solution were then placed in 96-well plates and the absorbance was measured at 450 nm using microplate reader. Anti-melanin activity was expressed by the percentage of melanin to that of untreated melanoma cells. As positive control Kojic Acid (KA) was used at different concentrations (0.1, 1 and 10 μM).
structure (smiles),measurement,value
"O=c1cc(CO)occ1O [KA, kojic acid]",reduction of melanin compared with the peptides of the invention (F22) at the same concentration,the reduction was substantially lower
